Laboratory results as given in ChEMBL document CHEMBL4118099, “Targeting Transcriptional Enhanced Associate Domains (TEADs)” (J Med Chem, 2018).

Columns and labels:
[1] = target: T1, Transcriptional enhancer factor TEF-1 (Homo sapiens, UniProt P28347); assay: Inhibition of human His-tagged YAP (50 to 171 residues) interaction with human GST-tagged TEAD1 (194 to 411) expressed in Escherichia coli BL21(DE3) incubated for 30 mins measured by SPR assay
[2] = target: T1, Transcriptional enhancer factor TEF-1; assay: Binding affinity to human GST-tagged TEAD1 (194 to 411) expressed in Escherichia coli BL21(DE3) by SPR assay
[3] = target: Transcriptional enhancer factor TEF-3 (Homo sapiens, UniProt Q15561); assay: Binding affinity to human His-tagged TEAD4 YBD (217 to 434 residues) expressed in Escherichia coli BL21(DE3) after 30 mins by ITC assay
Transcriptional enhancer factor TEF-3, sequence (Q15561 whole entry, the tested form may be a part): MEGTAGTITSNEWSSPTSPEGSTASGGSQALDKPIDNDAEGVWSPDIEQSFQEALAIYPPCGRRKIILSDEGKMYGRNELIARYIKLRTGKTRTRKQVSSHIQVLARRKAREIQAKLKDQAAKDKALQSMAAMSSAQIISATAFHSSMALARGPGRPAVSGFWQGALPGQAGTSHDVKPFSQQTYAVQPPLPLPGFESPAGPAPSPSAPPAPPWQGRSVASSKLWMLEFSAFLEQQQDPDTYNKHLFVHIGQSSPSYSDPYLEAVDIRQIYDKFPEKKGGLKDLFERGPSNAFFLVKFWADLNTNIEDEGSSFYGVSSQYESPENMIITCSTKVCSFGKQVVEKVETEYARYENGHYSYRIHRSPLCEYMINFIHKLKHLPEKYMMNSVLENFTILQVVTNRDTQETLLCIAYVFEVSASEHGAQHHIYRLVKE

T1 sequence (P28347 whole entry, the tested form may be a part): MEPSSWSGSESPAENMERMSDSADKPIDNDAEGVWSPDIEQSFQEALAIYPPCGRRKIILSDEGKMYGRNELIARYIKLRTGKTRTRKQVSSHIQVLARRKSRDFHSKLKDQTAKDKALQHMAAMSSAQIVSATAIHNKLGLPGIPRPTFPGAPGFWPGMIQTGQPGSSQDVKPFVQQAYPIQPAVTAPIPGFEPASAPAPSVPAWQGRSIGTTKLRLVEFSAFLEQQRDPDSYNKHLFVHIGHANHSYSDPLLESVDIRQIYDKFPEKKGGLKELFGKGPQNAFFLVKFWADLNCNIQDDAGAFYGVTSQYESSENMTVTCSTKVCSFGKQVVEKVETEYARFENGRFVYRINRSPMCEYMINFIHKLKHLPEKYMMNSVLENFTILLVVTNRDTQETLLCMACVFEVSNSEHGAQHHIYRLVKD

Compound | IC50 [1] [µM] | Kd [2] [µM] | Kd [3] [µM]
CCCC[C@@H]1NC(=O)[C@H](CCCCN)NC(=O)[C@H](CCCNC(=N)N)NC(=O)[C@H](CC(C)C)NC(=O)[C@@H](NC(=O)[C@H](Cc2cccc(Cl)c2)N[C@H](C)[C@@H]2CCCN2C(=O)[C@@H](NC(C)=O)C(C)C)CCSSC[C@@H](C(=O)N[C@@H](CCCCN)C(=O)N2CCC[C@H]2C(=O)N2CCC[C@H]2C(=O)N[C@@H](CCC(=O)O)C(N)=O)NC(=O)[C@@H](Cc2ccccc2)NC(=O)[C@H](CO)NC(=O)[C@H](C)NC(=O)[C@@H]2CCCN2C1=O | 0.025 | 0.015 | 
O=C(O)c1cccnc1Nc1cccc(C(F)(F)F)c1 [NIFLUMIC ACID] |  |  | 28
